Source: patent US20050049201A1, “Detection and removal of lead using lead-binding proteins” (priority 2001, published 2005)

Assays:
[1] = Solid phase assay for lead: protein on nitrocellulose with chromogenic dye; details: combined results, various buffers, pH, salts and dyes
Description: A solid phase assay for the detection of lead was also developed using one or more synthetically produced lead-binding proteins. Both TB4 and ACBP and the various mutants that have been generated from them can be used in this assay. The experiment is performed by binding the protein to a solid surface support, such as nitrocellulose paper, cotton, glass microfibers, or polystyrene beads using, for example, methods described herein. Then the sample to be tested, such as saliva or blood, is placed onto the surface and allowed to react with the protein. After washing with buffer, or example a neutral non-chelating buffer to remove any unreacted material, the sample is treated with a ligand that can detect a lead-leading binding protein complex, for example, a ligand that can cause a color chance upon detecting a lead-protein complex. Examples of such ligands include, sodium sulfide and sodium rhodizonic acid. Furthermore, the concentration of the lead in the sample being tested may be determined by the intensity of the spot produced upon binding of the dye. […]
As a control, the assay was tested using solutions containing several different buffers, pH conditions, and salts for reaction with the sodium sulfide and sodium rhodizonic acid dyes used. […] The pH was determined empirically for rhodizonic acid over a range of pH 4 to pH 8. […]

[2] = lead binding; Quintanilla-Vega 1995, Smith 1998; read-out: dissociation constant (Kd) of high affinity lead-binding region; cited from earlier work

Q: With “thymosin beta-4 (MSDKPDMAEIEKFDKSKLKKTETQEKNPLPSKETIEQEKQAGES; listed as Homo sapiens) [TB4]” as the substance, how does the “performance of solid phase lead detection assay” value [1] read?
A: works well under various conditions

Q: What about the Kd [2] of the same substance?
A: ~1 nM
